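Five compound concentrations were applied to cells in 96-well plates for 48 hours; endpoints were derived by simple linear interpolation of the resulting dose-response curve. GI50: concentration for 50% inhibition of growth. TGI marks complete inhibition of growth.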
Legend:
Assay in all cases: NCI tumour cell line growth inhibition, 48 h
[1] = system: 786-0 renal
[2] = system: A498 renal
[3] = system: A549 NSCLC
[4] = system: ACHN renal
[5] = system: BT-549 breast
[6] = system: CAKI-1 renal
[7] = system: CCRF-CEM leukemia
[8] = system: COLO 205 colon
[9] = system: DU-145 prostate
[10] = system: EKVX NSCLC
[11] = system: HCC-2998 colon
[12] = system: HCT-116 colon
[13] = system: HCT-15 colon
[14] = system: HL-60(TB) leukemia
[15] = system: HOP-62 NSCLC
[16] = system: HOP-92 NSCLC
[17] = system: HS 578T breast
[18] = system: HT29 colon
[19] = system: IGROV1 ovarian
[20] = system: KM12 colon
[21] = system: LOX IMVI melanoma
[22] = system: M14 melanoma
[23] = system: MALME-3M melanoma
[24] = system: MCF7 breast
[25] = system: MDA-MB-231 breast
[26] = system: MOLT-4 leukemia
[27] = system: NCI-H226 lung
[28] = system: NCI-H23 lung
[29] = system: NCI-H460 lung
[30] = system: NCI-H522 lung
[31] = system: NCI/ADR-RES ovarian
[32] = system: OVCAR-3 ovarian
[33] = system: OVCAR-4 ovarian
[34] = system: OVCAR-5 ovarian
[35] = system: OVCAR-8 ovarian
[36] = system: PC-3 prostate
[37] = system: RPMI-8226 leukemia
[38] = system: RXF 393 renal
[39] = system: SF-268 CNS
[40] = system: SF-295 CNS
[41] = system: SF-539 CNS
[42] = system: SK-MEL-2 melanoma
[43] = system: SK-MEL-28 melanoma
[44] = system: SK-MEL-5 melanoma
[45] = system: SK-OV-3 ovarian
[46] = system: SN12C renal
[47] = system: SNB-19 CNS
[48] = system: SNB-75 CNS
[49] = system: SR leukemia
[50] = system: SW-620 colon
[51] = system: T-47D breast
[52] = system: TK-10 renal
[53] = system: U251 CNS
[54] = system: UACC-257 melanoma
[55] = system: UACC-62 melanoma
[56] = system: UO-31 renal

COc1ccccc1/C=C/C=N/NC1=NC2C(S1)N(C)C(=O)N2C (configuration not stated)
GI50 [1]: 5.77 µM | TGI [1]: 70.3 µM | GI50 [2]: 11.1 µM | TGI [2]: 94.6 µM | GI50 [3]: 7.31 µM | TGI [3]: > 100 µM | GI50 [4]: 5.67 µM | TGI [4]: 93.9 µM | GI50 [5]: 2.94 µM | TGI [5]: 12.9 µM | GI50 [6]: 4.11 µM | TGI [6]: > 100 µM | GI50 [7]: 4.42 µM | TGI [7]: > 100 µM | GI50 [8]: 4.8 µM | TGI [8]: 20.3 µM | GI50 [9]: 5.74 µM | TGI [9]: > 100 µM | GI50 [10]: 9.85 µM | TGI [10]: > 100 µM | GI50 [11]: 10.5 µM | TGI [11]: 33.2 µM | GI50 [12]: 4.36 µM | TGI [12]: 90.8 µM | GI50 [13]: 3.96 µM | TGI [13]: > 100 µM | GI50 [14]: 0.545 µM | TGI [14]: 4.37 µM | GI50 [15]: 7.76 µM | TGI [15]: > 100 µM | GI50 [16]: 3.39 µM | TGI [16]: 32.3 µM | GI50 [17]: 3.82 µM | TGI [17]: > 100 µM | GI50 [18]: 3.33 µM | TGI [18]: 13.2 µM | GI50 [19]: 8.3 µM | TGI [19]: > 100 µM | GI50 [20]: 3.92 µM | TGI [20]: 17.7 µM | GI50 [21]: 4.94 µM | TGI [21]: 21.2 µM | GI50 [22]: 3.9 µM | TGI [22]: 43 µM | GI50 [23]: 4.73 µM | TGI [23]: 77.7 µM | GI50 [24]: 2.91 µM | TGI [24]: > 100 µM | GI50 [25]: 9.27 µM | TGI [25]: 75.8 µM | GI50 [26]: 4.54 µM | TGI [26]: > 100 µM | GI50 [27]: 3.53 µM | TGI [27]: 90.2 µM | GI50 [28]: 7.62 µM | TGI [28]: > 100 µM | GI50 [29]: 3.95 µM | TGI [29]: > 100 µM | GI50 [30]: 1.68 µM | TGI [30]: 4.54 µM | GI50 [31]: 4.19 µM | TGI [31]: > 100 µM | GI50 [32]: 2.5 µM | TGI [32]: 6.6 µM | GI50 [33]: 9.21 µM | TGI [33]: > 100 µM | GI50 [34]: 5.55 µM | TGI [34]: > 100 µM | GI50 [35]: 5.47 µM | TGI [35]: 51.9 µM | GI50 [36]: 5.28 µM | TGI [36]: > 100 µM | GI50 [37]: 4.8 µM | TGI [37]: > 100 µM | GI50 [38]: 2.43 µM | TGI [38]: 17 µM | GI50 [39]: 6.78 µM | TGI [39]: 38.5 µM | GI50 [40]: 3.68 µM | TGI [40]: 38.2 µM | GI50 [41]: 2.59 µM | TGI [41]: 8.6 µM | GI50 [42]: 3.02 µM | TGI [42]: 15.1 µM | GI50 [43]: 8.86 µM | TGI [43]: > 100 µM | GI50 [44]: 3.61 µM | TGI [44]: 13.8 µM | GI50 [45]: 6.93 µM | TGI [45]: 66.4 µM | GI50 [46]: 4.4 µM | TGI [46]: 30.7 µM | GI50 [47]: 6.28 µM | TGI [47]: > 100 µM | GI50 [48]: 2.82 µM | TGI [48]: 49.3 µM | GI50 [49]: 2.74 µM | TGI [49]: 30.4 µM | GI50 [50]: 4.07 µM | TGI [50]: > 100 µM | GI50 [51]: 5.6 µM | TGI [51]: > 100 µM | GI50 [52]: 14.3 µM | TGI [52]: 72.5 µM | GI50 [53]: 5.02 µM | TGI [53]: > 100 µM | GI50 [54]: 8.11 µM | TGI [54]: > 100 µM | GI50 [55]: 2.99 µM | TGI [55]: 34.1 µM | GI50 [56]: 4.03 µM | TGI [56]: 43.6 µM

— PubChem BioAssay (NCI)
